According to US9005649B2, “Methods for making controlled delivery devices having zero order kinetics” (Board of Regents, the University of Texas System, priority 2009, dated 2015):
Each block holds one compound with its values, some of them ahead of it.

How the values were obtained:
[1] = intravenous, AIDS patients with CMV retinitis; cited from earlier work
[2] = Release of crystal violet from impermeable polyimide tube delivery devices into phosphate buffered saline (USP Disintegration Apparatus, UV-Vis); assay type: physicochemical; details: single outlet port device
[3] = Release of crystal violet from single outlet port devices of 200, 400 and 600 microns inside diameter (incubator, UV-Vis); assay type: physicochemical; details: one outlet port devices, 200, 400, 600 microns inside diameter, 3.0 ml PBS pH 7.37, 37° C., 7 days
Description: Drug delivery devices were made having one outlet port and one sealed end. […] Three different variation of devices were prepared with different inside diameters, as in 200, 400, and 600 microns. Four devices of each type were subjected to release studies as described in Example I. Single passageway tubes were placed in micro vials containing 3.0 ml of phosphate buffered saline (0.01 M phosphate, pH 7.37). The vials were placed in an incubator maintained at 37° C. for the entire duration of study. The buffer was changed every 24 hours, sampled, and analyzed for the amount of crystal violet released using a UV-Vis Spectrophotometer for seven (7) days.

[4] = Release of crystal violet from impermeable polyimide tube delivery devices into phosphate buffered saline (USP Disintegration Apparatus, UV-Vis); assay type: physicochemical; details: for linearity of release: 28 days; for total duration of release, percentage release extrapolated to 100%: PBS pH 7.37, 37° C., 28 days data
Description: Lengths of polyimide tubes were provided having a length of 20 mm and a diameter of 125 microns. At the centre of each tube, a passageway with a diameter of 30 microns was made using standard chemical procedures.
Seven (7) tubes having the optimal passageways were selected and loaded with a concentrated solution of crystal violet in ethanol by capillary method. The tubes were then allowed to stand for 24 hours at room temperature to evaporate alcohol from the tubes, such that the tube is tightly packed with a solid crystal violet composition.
After taking an initial weight measurement, an average amount of 126 micrograms of crystal violet was estimated inside the tubes. The ends of the tubes were sealed with a bioglue and dried.
Single passageway tubes made according to Example I were placed in microvials containing 0.26 ml of phosphate buffered saline (0.01 M phosphate, pH 7.37). The vials were placed in a USP Disintegration Apparatus having dip rate of 30-32 dips per minute. The apparatus was connected to a waterbath maintained at 37° C. for the entire duration of study. The buffer was changed every 48 hours, sampled, and analyzed for the amount of crystal violet released using a UV-Vis Spectrophotometer for 28 days.
Several drug delivery devices were constructed in accordance with in Example I except that two passageways were made located equidistant from the tube centre. The optimal seven (7) were selected and loaded with crystal violet in accordance with Example I.
Several drug delivery devices were constructed in accordance with Example I except that three passageways were made located equidistant from each end of the tube. The optimal seven (7) were selected and loaded with crystal violet in accordance with Example I.
Seven (7) lengths of polyimide tubes were provided having a length of 20 mm and a diameter of 125 microns. The tubes were then loaded with a concentrated solution of crystal violet in ethanol by capillary method. The tubes were then allowed to stand for 24 hours at room temperature to evaporate alcohol from the tubes, such that the tube is tightly packed with a solid crystal violet composition. One end of the tube was sealed with a bioglue while the other end was left open.
A drug delivery device made in accordance with Example VIII was subjected to release studies as described in Example II. […] The percentage release when extrapolated to 100% corresponds to the total duration of release of approximately 2 years.

[5] = continuous release for seven days, glaucoma; cited from earlier work

SMILES: Nc1nc(O)c2ncn(COC(CO)CO)c2n1 [Ganciclovir]
patients experiencing bone marrow toxicity resulting in neutropenia (neutrophil count <1000) [1]: 30-50%

linearity of release ([2]; 5 days): significant linearity of release
total duration of release, percentage release extrapolated to 100% ([2]; no surface passageways, one open end, 5 days data): approximately 2 years
linearity of release [3]: significant linearity of release
amount released relative to single passageway device ([4]; double passageway device): two-fold
linearity of release ([4]; double passageway device): significant linear agent release
total duration of release, percentage release extrapolated to 100% ([4]; double passageway device): approximately 22 years
total duration of release, percentage release extrapolated to 100% ([4]; single passageway device (30 micron passageway, 20 mm x 125 micron tube)): approximately 43 years
linearity of release ([4]; single passageway device): significant linearity of release
amount released relative to single passageway device ([4]; triple passageway device): three-fold
linearity of release ([4]; triple passageway device): significant linear agent release
total duration of release, percentage release extrapolated to 100% ([4]; triple passageway device): approximately 15 years
SMILES: CN(C)c1ccc(C(=C2C=CC(=[N+](C)C)C=C2)c2ccc(N(C)C)cc2)cc1 [crystal violet]

SMILES: CC[C@@H]1C(=O)OC[C@@H]1Cc1cncn1C [pilocarpine]
release rate from ocular insert [5]: 20 to 40 µg/h
